{"source": "patent US20230107926A1", "about": "“A METHOD FOR TREATING A BIOLOGICAL OBJECT” (OPTICEPT TECHNOLOGIES AB, priority 2020, published 2023)", "key": {"[1]": {"system": "Cuttings of Pelargonium interspecific: Calliope M Dark Red", "assay": "Comparative trial of vacuum impregnation (VI) on unrooted Pelargonium cuttings: storage, rooting, losses, acceptability", "type": "in vivo", "details": "for % Losses after storage: stored at 8° C, losses before sticking; for % Losses / % Rooted / %Not rooted / % Acceptable YPL: 21 days after sticking; for % Acceptable YPL: YPL = young plant", "description": "Comparative trials were made to investigate the effect of a method according to the present invention, that is a method preferably involving vacuum impregnation and which definitely is free from any PEF step, and a method involving a PEF step, either alone or together with an impregnation step, and of course also compared with untreated control(s). Cuttings of Pelargonium interspecific: Calliope M Dark Red was used as the testing material. When testing the method according to the second aspect of the present invention, the following vacuum impregnation parameters (protocol) were used: A pressure falling time of 10 minutes, a holding time of the obtained low pressure of 1 minute and then 15 minutes rising time when the pressure was increased again to atmospheric pressure. The minimum pressure was set at 220 mbar and trehalose 10% was used as the impregnation solution. For the PEF trial and step (not according to the present invention), the parameters used were the following: 500 V in continuous system, 250 µs pulse width and 50 PPV (pulses per volume), 0.3 KW. For the group of cuttings that was subjected only to vacuum impregnation, that is by a method according to the present invention, an additional rinsing step was also performed. Moreover, each group tested consisted of 80 unrooted cuttings, and not any repetitions were performed. When the pelargonium cuttings were received they were processed immediately. After the treatment, the groups were placed in perforated trays and kept inside slightly opened boxes. The boxes were stored 7 days at 8° C. After 7 days of storage the cuttings were evaluated and counted. The damaged (due to Botrytis), rotten or withered ones are removed. These are called losses before sticking. The rooting, losses and acceptability results were obtained 21 days after sticking. […] It should be noted that data for losses after storage were obtained after […] of storage."}, "Roses (variety: Athena)": {"system": "Roses (variety: Athena)", "assay": "Vacuum impregnation on roses, appearance during vase storage at room temperature", "type": "in vivo", "details": "fructose 2-15 wt%, VI without PEF, versus untreated control", "description": "Roses (variety: Athena) were purchased form a local distributor. The roses were transported from Kenya. The roses arrived at the test site 4 days after harvest.\nThe treatment according to the present invention was applied to the roses immediately after the arrival. The roses were placed vertically in an impregnation solution, making sure that the flower bud was not immersed in the impregnation solution, thus only the stem and leaves were immersed. The impregnation solution contained sugar (fructose at a concentration of 2-15 wt%). Vacuum was applied reaching a minimum pressure range of 60 - 300 mbar, and with a total treatment time of about 12 minutes.\nTo continue with the trial performed, after that the vacuum impregnation treatment was finished, the roses were taken out from the impregnation solution. They were then immersed in water, again excluding the flower buds, to wash the sugars from the surface and then placed in a cold room for 24 hours to recover. They were in this case not dried in any way.\nAfter 24 hours the roses were moved to room temperature in order to evaluate the results at the end user conditions. They were stored in a vase, with only the lower part of the stems immersed in water, and the water was renewed every two days.\nRoses were stored at room temperature for 13 days after the treatment (Right: roses treated according to the present invention, left: control roses, i.e. not treated)."}}, "data": [{"smiles": "OC[C@H]1O[C@H](O[C@H]2O[C@H](CO)[C@@H](O)[C@H](O)[C@H]2O)[C@H](O)[C@@H](O)[C@@H]1O", "note": "[Trehalose 10%, trehalose]", "values": [{"measurement": "% Losses after storage", "setting": "[1]; No PEF, only VI (220 mbar)", "result": 4, "unit": "%"}, {"measurement": "% Losses", "setting": "[1]; No PEF, only VI", "result": 0, "unit": "%"}, {"measurement": "% Rooted", "setting": "[1]; No PEF, only VI", "result": 88, "unit": "%"}, {"measurement": "%Not rooted", "setting": "[1]; No PEF, only VI", "result": 8, "unit": "%"}, {"measurement": "% Acceptable YPL", "setting": "[1]; No PEF, only VI", "result": 46, "unit": "%"}, {"measurement": "% Losses after storage", "setting": "[1]; VI + PEF (500 V, 250 µs, 50 PPV)", "result": 0, "unit": "%"}, {"measurement": "% Losses", "setting": "[1]; VI + PEF", "result": 10, "unit": "%"}, {"measurement": "% Rooted", "setting": "[1]; VI + PEF", "result": 75, "unit": "%"}, {"measurement": "%Not rooted", "setting": "[1]; VI + PEF", "result": 15, "unit": "%"}, {"measurement": "% Acceptable YPL", "setting": "[1]; VI + PEF", "result": 35, "unit": "%"}]}, {"smiles": "O=C(CO)[C@@H](O)[C@H](O)[C@H](O)CO", "note": "[sugar, fructose]", "values": [{"measurement": "general appearance of roses", "setting": "Roses (variety: Athena); stem and leaves immersed, 13 days at room temperature", "result": "clear improvement"}, {"measurement": "browning and wilting of the flower buds", "setting": "Roses (variety: Athena); room temperature storage", "result": "delayed"}, {"measurement": "freshness of the treated leaves", "setting": "Roses (variety: Athena); room temperature storage", "result": "preserve freshness better"}]}]}
